Consider 25 compounds from patent US4963573A, “[[[(3-pyridinyl)methylen]amino]oxy]alkanoic acids and esters” (Janssen Pharmaceutica N.V., priority 1989, dated 1990).

pIC50: −log10 of the molar value. Where two headings read alike, the source gives them in different places.

Assay [1] relates to thromboxane A2 biosynthesis. In words: Platelet malondialdehyde (MDA) production in vivo, male Wistar rats. The settings on record: Rattus norvegicus, read-out: MDA production in vivo ED50-values. The protocol:
MDA production by platelets in plasma, as an indicator of the thromboxane A2 biosynthesis, was evaluated spectrofluometrically. […] After 30 min at 37° C., the reaction was terminated by the addition of 1 ml of 10% (w/v) trichloroacetic acid. […] The fluorescence of the samples at 553 nm after excitation at 510 nm was measured. The results were calculated as nM MDA/10^8 platelets/30 min and were expressed as a percentage inhibition produced by the compounds relative to the formation of MDA after thrombin stimulation in the solvent. For in vitro experiments, human platelets in plasma were used. Percentage inhibition was calculated versus the solvent value.
For in vivo experiments male Wistar rats were fasted overnight. 2 Hours before blood sampling they were treated with the test compound solution/suspension or the solvent. […] ED50 -values were determined by probit analysis.

The test system of assay [2] is thromboxane A2 biosynthesis. The assay can be described thus: Platelet malondialdehyde (MDA) production in vitro, human platelets in plasma, thrombin stimulated. The assay is classed as cell-based. As to conditions: human platelet-rich plasma, thrombin 20 N.I.H. U/ml, 10 min pre-incubation at 37° C., 30 min reaction, 50% inhibition vs solvent. The protocol:
MDA production by platelets in plasma, as an indicator of the thromboxane A2 biosynthesis, was evaluated spectrofluometrically. […] After 30 min at 37° C., the reaction was terminated by the addition of 1 ml of 10% (w/v) trichloroacetic acid. After isolation of the supernatant by centrifugation at 320 g for 20 min, the thiobarbituric acid reaction for MDA was performed using acid-hydrolyzed 1,1,3,3-tetramethoxypropane as a standard. The fluorescence of the samples at 553 nm after excitation at 510 nm was measured. The results were calculated as nM MDA/10^8 platelets/30 min and were expressed as a percentage inhibition produced by the compounds relative to the formation of MDA after thrombin stimulation in the solvent. For in vitro experiments, human platelets in plasma were used. Percentage inhibition was calculated versus the solvent value.

Where [3] appears, read: male Wistar rats fasted overnight, treated 2 hours before blood sampling, 50% inhibition relative to MDA values with solvent, probit analysis.

Regarding `O=C(O)CCCCON=C(c1ccccc1)c1cccnc1` [Compound 4, (E+Z)-5-[[[phenyl(3-pyridinyl)methylen]amino]oxy]pentanoic acid], the ED50 (as a rule, the dose at which the effect has come halfway, by size or by number of responders) in assay [1] (setting [3]) was found to be 0.059 mg/kg. Further, the pIC50 – broadly, the negative decadic logarithm of the IC50, by convention in mol/L – in assay [2] was 7.00.

`CCOC(=O)CCCCO/N=C(\c1ccccc1)c1cccnc1` [Compound 9]: the pIC50 in assay [2] was over 7.00.

As for `O=C(O)CCCCO/N=C(/c1cccnc1)c1cccc(C(F)(F)F)c1` [Compound 63, (E)-5-[[[(3-pyridinyl)[3-(trifluoromethyl)phenyl]methylen]amino]oxy]pentanoic acid], in assay [1] (setting [3]), the ED50 worked out at 0.012 mg/kg. In assay [2], this compound had a pIC50 of 7.66.

With `O=C(O)CCCCO/N=C(\c1ccccc1)c1cccnc1` [Compound 65], in assay [1] (setting [3]), the ED50 amounted to 0.045 mg/kg. In assay [2], this compound showed a pIC50 of 7.18.

Consider `O=C(O)CCCCO/N=C(\Cc1ccccc1)c1cccnc1` [Compound 68], for which the ED50 in assay [1] (setting [3]) was found to be 1 mg/kg. Moreover, the negative logarithm of the IC50 (pIC50) in assay [2] is 7.12.

As for `COc1ccc(C(=NOCCCCC(=O)O)c2cccnc2)cc1` [Compound 69], the ED50 in assay [1] (setting [3]) worked out at 0.17 mg/kg. Besides, the negative logarithm of the IC50 (pIC50) in assay [2] is 7.00.

On to `O=C(O)CCCCON=C(c1cccnc1)c1cccnc1` [Compound 70], for which, in assay [1] (setting [3]), the ED50 was found to be 1.2 mg/kg. Further, the negative-log IC50 (pIC50) in assay [2] was 6.74.

`Cc1ccc(C(=NOCCCCC(=O)O)c2cccnc2)cc1` [Compound 72]: the ED50 in assay [1] (setting [3]) came to 0.041 mg/kg. The same compound had a pIC50 in assay [2] of 6.92.

As to `O=C(O)CCCCON=C(c1ccc(F)cc1)c1cccnc1` [Compound 73], the ED50 in assay [1] (setting [3]) turned out to be 0.2 mg/kg. The pIC50 in assay [2] was 6.52.

For `O=C(O)CCCCON=C(c1cccnc1)c1cccc2ccccc12` [Compound 74], the median effective dose (ED50) in assay [1] (setting [3]) was determined as 0.023 mg/kg. The pIC50 in assay [2] was 7.64.

Consider `O=C(O)CCCCO/N=C(/c1cccnc1)c1cccs1` [Compound 76], for which the ED50 in assay [1] (setting [3]) is 0.068 mg/kg. In assay [2], this compound had a pIC50 of 6.92.

On to `O=C(O)CCCCON=C(c1cccnc1)c1ccc2ccccc2c1` [Compound 78], for which, in assay [1] (setting [3]), the ED50 amounted to 0.044 mg/kg. In assay [2], this compound gave a negative logarithm of the IC50 (pIC50) of 6.62.

As for `COc1ccc(C(=NOCCCCC(=O)O)c2cccnc2)cc1OC` [Compound 82], in assay [1] (setting [3]), the ED50 was found to be 0.056 mg/kg. For the same compound, the negative logarithm of the IC50 (pIC50) in assay [2] was 6.96.

In the case of `O=C(O)CCCCO/N=C(/c1cccnc1)c1ccsc1` [Compound 84], in assay [1] (setting [3]), the ED50 is 0.17 mg/kg. In assay [2], the pIC50 was 6.96.

For the compound `CCCC/C(=N\OCCCCC(=O)O)c1cccnc1` [Compound 86], the 50% effective dose (ED50) in assay [1] (setting [3]) was over 0.16 mg/kg. Further, in assay [2], the pIC50 was 7.20.

For the compound `COC(OC)c1ccccc1/C(=N\OCCCCC(=O)O)c1cccnc1` [Compound 87], the 50% effective dose (ED50) in assay [1] (setting [3]) was over 0.16 mg/kg. This compound also gave a pIC50 in assay [2] of 7.62.

Regarding `Cc1cccc(C(=NOCCCCC(=O)O)c2cccnc2)c1` [Compound 89], in assay [1] (setting [3]), the ED50 was determined as 0.02 mg/kg. Also, in assay [2], the pIC50 was 7.37.

`Cc1cccc(/C(=N\OCCCCC(=O)O)c2cccnc2)c1` [Compound 90, (E)-5-[[[(3-methylphenyl)(3-pyridinyl)methylen]amino]oxy]pentanoic acid]: the 50% effective dose (ED50) in assay [1] (setting [3]) is 0.013 mg/kg. For the same compound, in assay [2], the pIC50 is 7.62.

On to `O=C(O)CCCCO/N=C(/c1cccnc1)c1cc(C(F)(F)F)cc(C(F)(F)F)c1` [Compound 92], for which the ED50 in assay [1] (setting [3]) stood at 0.01 mg/kg. Moreover, the negative logarithm of the IC50 (pIC50) in assay [2] is 7.48.

Regarding `O=C(O)CCCCO/N=C(/c1cccnc1)c1cccc2ccccc12` [Compound 93, (E)-5-[[[(1-naphthalenyl)(3-pyridinyl)methylen]amino]oxy]pentanoic acid], the 50% effective dose (ED50) in assay [1] (setting [3]) was 0.014 mg/kg. Further, the pIC50 in assay [2] is 8.00.

Consider `O=C(O)CCCCON=C(c1cccnc1)c1ccccc1C(F)(F)F` [Compound 94], for which, in assay [2], the pIC50 is 7.49.

In assay [2], `O=Cc1cccc(C(=NOCCCCC(=O)O)c2cccnc2)c1` [Compound 116, (E+Z)-5-[[[(3-formylphenyl)(3-pyridinyl)methylen]amino]oxy]pentanoic acid] had a negative-log IC50 (pIC50) of 7.00.

Regarding `O=C([O-])CCCCO/N=C(/c1cccnc1)c1cccc(C(F)(F)F)c1.[Na+]` [Compound 121, sodium (E)-5-[[[(3-pyridinyl)[3-(trifluoromethyl)phenyl]methylen]amino]oxy]pentanoate], the ED50 in assay [1] (2 h) worked out at 0.015 mg/kg. In assay [2] (Homo sapiens, Platelet), this compound showed a pIC50 of 7.85.

In the case of `O=C([O-])CCCCO/N=C(\c1ccccc1)c1cccnc1.[Na+]` [Compound 122, sodium (E)-5-[[[phenyl(3-pyridinyl)methylen]amino]oxy]pentanoate], the ED50 in assay [1] (2 h) was under 0.16 mg/kg. In addition, the negative logarithm of the IC50 (pIC50) in assay [2] (Homo sapiens, Platelet) was 7.09.

As for `O=C(O)CCCCO/N=C(/c1cccnc1)c1cccc2ccccc12` [Compound 123, sodium (E)-5-[[[(1-naphthalenyl)(3-pyridinyl)methylen]amino]oxy]pentanoate], the negative-log IC50 (pIC50) in assay [2] (Homo sapiens, Platelet) was 7.74.
